# Test system: p53 signaling pathway in MT373 tumors
# Test: MT373 syngeneic sarcoma model: mouse p53 signaling pathway profiling panel
# Assay type: in vivo
# Settings: for Actb* mRNA (housekeeping or reference gene), Fold Increase Over Vehicle Control or Percent Reduction Compared to Vehicle Control (%) / B2m* mRNA (housekeeping or reference gene), Fold Increase Over Vehicle Control or Percent Reduction Compared to Vehicle Control (%) / Gapdh* mRNA (housekeeping or reference gene), Fold Increase Over Vehicle Control or Percent Reduction Compared to Vehicle Control (%) / Gusb* mRNA (housekeeping or reference gene), Fold Increase Over Vehicle Control or Percent Reduction Compared to Vehicle Control (%) / Hsp90ab1* mRNA (housekeeping or reference gene), Fold Increase Over Vehicle Control or Percent Reduction Compared to Vehicle Control (%) / MGDC* (housekeeping or reference gene), Fold Increase Over Vehicle Control or Percent Reduction Compared to Vehicle Control (%) / Trp63 mRNA, Fold Increase Over Vehicle Control or Percent Reduction Compared to Vehicle Control (%) / Trp73 mRNA, Fold Increase Over Vehicle Control or Percent Reduction Compared to Vehicle Control (%) / Wt1 mRNA, Fold Increase Over Vehicle Control or Percent Reduction Compared to Vehicle Control (%) / Zmat3 mRNA, Fold Increase Over Vehicle Control or Percent Reduction Compared to Vehicle Control (%): MT373 tumors
compound,measurement,setting,value
"CCn1c(C#CCNc2ccccc2)cc2cc(CNC3CCN(C)CC3)ccc21 [Compound 1, 1-Anilino-3-{1-ethyl-5-[(1-methyl-4-piperidylamino)methyl]-1H-indol-2-yl}-2-propyne]",Il6 mRNA change,"150 mg/kg BID×1, 24 h",85.31%
same,Mdm2 mRNA increase,"150 mg/kg BID×1, 24 h",5.96 fold
same,Sesn2 mRNA increase,"150 mg/kg BID×1, 24 h",2.45 fold
same,Zmat3 mRNA increase,"150 mg/kg BID×1, 24 h",6.17 fold
same,"Actb* mRNA (housekeeping or reference gene), Fold Increase Over Vehicle Control or Percent Reduction Compared to Vehicle Control (%)","75 mg/kg BIDx1, 8 h",1.60 fold or %
same,"B2m* mRNA (housekeeping or reference gene), Fold Increase Over Vehicle Control or Percent Reduction Compared to Vehicle Control (%)","75 mg/kg BIDx1, 8 h",1.16 fold or %
same,"Gapdh* mRNA (housekeeping or reference gene), Fold Increase Over Vehicle Control or Percent Reduction Compared to Vehicle Control (%)","75 mg/kg BIDx1, 8 h",11.24 fold or %
same,"Gusb* mRNA (housekeeping or reference gene), Fold Increase Over Vehicle Control or Percent Reduction Compared to Vehicle Control (%)","75 mg/kg BIDx1, 8 h",1.12 fold or %
same,"Hsp90ab1* mRNA (housekeeping or reference gene), Fold Increase Over Vehicle Control or Percent Reduction Compared to Vehicle Control (%)","75 mg/kg BIDx1, 8 h",10.06 fold or %
same,"MGDC* (housekeeping or reference gene), Fold Increase Over Vehicle Control or Percent Reduction Compared to Vehicle Control (%)","75 mg/kg BIDx1, 8 h",1.79 fold or %
same,"Trp63 mRNA, Fold Increase Over Vehicle Control or Percent Reduction Compared to Vehicle Control (%)","75 mg/kg BIDx1, 8 h",3.58 fold or %
same,"Trp73 mRNA, Fold Increase Over Vehicle Control or Percent Reduction Compared to Vehicle Control (%)","75 mg/kg BIDx1, 8 h",16.09 fold or %
same,"Wt1 mRNA, Fold Increase Over Vehicle Control or Percent Reduction Compared to Vehicle Control (%)","75 mg/kg BIDx1, 8 h",28.78 fold or %
same,"Zmat3 mRNA, Fold Increase Over Vehicle Control or Percent Reduction Compared to Vehicle Control (%)","75 mg/kg BIDx1, 8 h",6.25 fold or %
same,"Actb* mRNA (housekeeping or reference gene), Fold Increase Over Vehicle Control or Percent Reduction Compared to Vehicle Control (%)","75 mg/kg BIDx1, 24 h",1.08 fold or %
same,"B2m* mRNA (housekeeping or reference gene), Fold Increase Over Vehicle Control or Percent Reduction Compared to Vehicle Control (%)","75 mg/kg BIDx1, 24 h",1.14 fold or %
same,"Gapdh* mRNA (housekeeping or reference gene), Fold Increase Over Vehicle Control or Percent Reduction Compared to Vehicle Control (%)","75 mg/kg BIDx1, 24 h",13.68 fold or %
same,"Gusb* mRNA (housekeeping or reference gene), Fold Increase Over Vehicle Control or Percent Reduction Compared to Vehicle Control (%)","75 mg/kg BIDx1, 24 h",1.25 fold or %
same,"Hsp90ab1* mRNA (housekeeping or reference gene), Fold Increase Over Vehicle Control or Percent Reduction Compared to Vehicle Control (%)","75 mg/kg BIDx1, 24 h",17.39 fold or %
same,"MGDC* (housekeeping or reference gene), Fold Increase Over Vehicle Control or Percent Reduction Compared to Vehicle Control (%)","75 mg/kg BIDx1, 24 h",1.27 fold or %
same,"Trp63 mRNA, Fold Increase Over Vehicle Control or Percent Reduction Compared to Vehicle Control (%)","75 mg/kg BIDx1, 24 h",1.58 fold or %
same,"Trp73 mRNA, Fold Increase Over Vehicle Control or Percent Reduction Compared to Vehicle Control (%)","75 mg/kg BIDx1, 24 h",1.01 fold or %
same,"Wt1 mRNA, Fold Increase Over Vehicle Control or Percent Reduction Compared to Vehicle Control (%)","75 mg/kg BIDx1, 24 h",21.25 fold or %
same,"Zmat3 mRNA, Fold Increase Over Vehicle Control or Percent Reduction Compared to Vehicle Control (%)","75 mg/kg BIDx1, 24 h",4.14 fold
same,"Actb* mRNA (housekeeping or reference gene), Fold Increase Over Vehicle Control or Percent Reduction Compared to Vehicle Control (%)","75 mg/kg BIDx1, 48 h",1.07 fold or %
same,"B2m* mRNA (housekeeping or reference gene), Fold Increase Over Vehicle Control or Percent Reduction Compared to Vehicle Control (%)","75 mg/kg BIDx1, 48 h",1.27 fold or %
same,"Gapdh* mRNA (housekeeping or reference gene), Fold Increase Over Vehicle Control or Percent Reduction Compared to Vehicle Control (%)","75 mg/kg BIDx1, 48 h",34.54 fold or %
same,"Gusb* mRNA (housekeeping or reference gene), Fold Increase Over Vehicle Control or Percent Reduction Compared to Vehicle Control (%)","75 mg/kg BIDx1, 48 h",1.31 fold or %
same,"Hsp90ab1* mRNA (housekeeping or reference gene), Fold Increase Over Vehicle Control or Percent Reduction Compared to Vehicle Control (%)","75 mg/kg BIDx1, 48 h",12.45 fold or %
same,"MGDC* (housekeeping or reference gene), Fold Increase Over Vehicle Control or Percent Reduction Compared to Vehicle Control (%)","75 mg/kg BIDx1, 48 h",1.78 fold or %
same,"Trp63 mRNA, Fold Increase Over Vehicle Control or Percent Reduction Compared to Vehicle Control (%)","75 mg/kg BIDx1, 48 h",2.65 fold or %
same,"Trp73 mRNA, Fold Increase Over Vehicle Control or Percent Reduction Compared to Vehicle Control (%)","75 mg/kg BIDx1, 48 h",3.40 fold or %
same,"Wt1 mRNA, Fold Increase Over Vehicle Control or Percent Reduction Compared to Vehicle Control (%)","75 mg/kg BIDx1, 48 h",21.51 fold or %
same,"Zmat3 mRNA, Fold Increase Over Vehicle Control or Percent Reduction Compared to Vehicle Control (%)","75 mg/kg BIDx1, 48 h",1.02 fold or %
same,"Actb* mRNA (housekeeping or reference gene), Fold Increase Over Vehicle Control or Percent Reduction Compared to Vehicle Control (%)","75 mg/kg BIDx1, 72 h",1.06 fold or %
same,"B2m* mRNA (housekeeping or reference gene), Fold Increase Over Vehicle Control or Percent Reduction Compared to Vehicle Control (%)","75 mg/kg BIDx1, 72 h",1.11 fold or %
same,"Gapdh* mRNA (housekeeping or reference gene), Fold Increase Over Vehicle Control or Percent Reduction Compared to Vehicle Control (%)","75 mg/kg BIDx1, 72 h",14.41 fold or %
same,"Gusb* mRNA (housekeeping or reference gene), Fold Increase Over Vehicle Control or Percent Reduction Compared to Vehicle Control (%)","75 mg/kg BIDx1, 72 h",1.11 fold or %
same,"Hsp90ab1* mRNA (housekeeping or reference gene), Fold Increase Over Vehicle Control or Percent Reduction Compared to Vehicle Control (%)","75 mg/kg BIDx1, 72 h",7.83 fold or %
same,"MGDC* (housekeeping or reference gene), Fold Increase Over Vehicle Control or Percent Reduction Compared to Vehicle Control (%)","75 mg/kg BIDx1, 72 h",1.36 fold or %
same,"Trp63 mRNA, Fold Increase Over Vehicle Control or Percent Reduction Compared to Vehicle Control (%)","75 mg/kg BIDx1, 72 h",1.62 fold or %
same,"Trp73 mRNA, Fold Increase Over Vehicle Control or Percent Reduction Compared to Vehicle Control (%)","75 mg/kg BIDx1, 72 h",1.00 fold or %
